Laboratory results from patent US10947251B2, “Therapeutic compounds and methods of use thereof” (GENENTECH, INC., priority 2018, dated 2021).

Assays:
hNav1.7 [1] = target: T1, hNav1.7 (Homo sapiens (Human), UniProt Q15858); assay: Tritiated compound binding to membranes from cells heterologously expressing hNav1.7 and the β1 subunit (LBA); conditions: competitive binding vs [3H]compound, membranes with hNav1.7 and β1 subunit; read-out: Nav1.7 LBA EVO IC50
hNav1.7 [2] = target: T1, hNav1.7; assay: Electrophysiological assay (EP), voltage clamp on Syncropatch 384PE; assay type: cell-based; conditions: CHO cells expressing Nav1.7, holding potential −50 mV, 7.5 min compound incubation; read-out: EP_SP hNav1.7 EVO IC50

SMILES | IC50 (hNav1.7 [1]) [nM] | IC50 (hNav1.7 [2]) [nM]
COc1cc(-c2cccc(C(F)(F)F)c2)c(F)cc1N1C(=O)OC[C@H]2CN(S(=O)(=O)Nc3ccon3)CC[C@@H]21 [Example 34, (4aS,8aS)-1-(2-fluoro-5-methoxy-3′-(trifluoromethyl)-[1,1′-biphenyl]-4-yl)-N-(isoxazol-3-yl)-2-oxohexahydro-2H-pyrido[4,3-d][1,3]oxazine-6(4H)-sulfonamide] | 2000 | 196
COc1cc(-c2cccc(C(F)(F)F)c2)c(F)cc1N1C(=O)CC[C@@H]2CN(S(=O)(=O)Nc3ccon3)CC[C@H]21 [Example 35, (4aR,8aR)-1-(2-fluoro-5-methoxy-3′-(trifluoromethyl)-[1,1′-biphenyl]-4-yl)-N-(isoxazol-3-yl)-2-oxooctahydro-1,6-naphthyridine-6(2H)-sulfonamide] | 49.3 | 2.88
COc1cc(-c2cccc(C(F)(F)F)c2)c(F)cc1N1C(=O)CC[C@@H]2CN(S(=O)(=O)Nc3ccon3)CC[C@@H]21 [Example 38, (4aR,8aS)-1-(2-fluoro-5-methoxy-3′-(trifluoromethyl)-[1,1′-biphenyl]-4-yl)-N-(isoxazol-3-yl)-2-oxooctahydro-1,6-naphthyridine-6(2H)-sulfonamide] | 641 | 10.7
